In patent US7135466B2 (Kirin Beer Kabushiki Kaisha, priority 1999, dated 2006):
Where two headings read alike, the source gives them in different places.

Biological target: T1, PDGF-Ra (Homo sapiens, UniProt P16234)
T1 construct: host or cells: G-292 human osteosarcoma cells
Experiment: Inhibitory activity against PDGF-Ra phosphorylation by PDGF-AA stimulation using G292
Type: cell-based
Settings: for IC50: > means inhibition at indicated concentration not more than 50%, < and << not less than 50%, read-out: PDGF (E) IC50; for inhibition at 0.1 µM: G292, at 100 nM, read-out: PDGF (E) inhibition (%) at 100 nM
Description: Measurement of Inhibitory Activity Against PDGF-Ra Phosphorylation by PDGF-AA Stimulation Using G292
G-292 human osteosarcoma cells (Dainippon Pharmaceutical Co. Ltd.) were cultured in a DMEM medium (Dainippon Pharmaceutical Co. Ltd.) containing 10% FBS within an incubator containing 5% carbon dioxide until 80% confluent, and the cells were planted at 3×10^4 cells per well in 96-well flat-bottom plates in the same medium containing 0.1% FBS. After cultivation at 37° C. overnight, a solution of a test compound in dimethyl sulfoxide was added to each well, and a reaction was allowed to proceed at 37° C. for one hr.
After the reaction of the test compound, PDGF-AA (Upstate) was added to 50 ng/ml, and the cells were stimulated at 37° C. for 5 min. Thereafter, the cells were solubilized and shaken at room temperature for 20 min.
This solubilized cell solution was transferred to a 96-well plate coated with aniti-phosphotyrosine antibody PY-20, and a reaction was allowed to proceed at 4° C. overnight. Anti-PDGF-Ra (c-20) (Santa Cruz) was added as a primary antibody, and a reaction was allowed to proceed for one hr. GAR (Anti-rabbit Ig, horseradish peroxidase, Amersham) was then added as a secondary antibody, and a reaction was allowed to proceed for one hr. Color development was carried out using a color development kit for peroxidase (Sumitomo Bakelite Co., Ltd.), and the absorbance was measured at 450 nm.

[1] = figure within parentheses in >100( )

T1 sequence (P16234 24-1089): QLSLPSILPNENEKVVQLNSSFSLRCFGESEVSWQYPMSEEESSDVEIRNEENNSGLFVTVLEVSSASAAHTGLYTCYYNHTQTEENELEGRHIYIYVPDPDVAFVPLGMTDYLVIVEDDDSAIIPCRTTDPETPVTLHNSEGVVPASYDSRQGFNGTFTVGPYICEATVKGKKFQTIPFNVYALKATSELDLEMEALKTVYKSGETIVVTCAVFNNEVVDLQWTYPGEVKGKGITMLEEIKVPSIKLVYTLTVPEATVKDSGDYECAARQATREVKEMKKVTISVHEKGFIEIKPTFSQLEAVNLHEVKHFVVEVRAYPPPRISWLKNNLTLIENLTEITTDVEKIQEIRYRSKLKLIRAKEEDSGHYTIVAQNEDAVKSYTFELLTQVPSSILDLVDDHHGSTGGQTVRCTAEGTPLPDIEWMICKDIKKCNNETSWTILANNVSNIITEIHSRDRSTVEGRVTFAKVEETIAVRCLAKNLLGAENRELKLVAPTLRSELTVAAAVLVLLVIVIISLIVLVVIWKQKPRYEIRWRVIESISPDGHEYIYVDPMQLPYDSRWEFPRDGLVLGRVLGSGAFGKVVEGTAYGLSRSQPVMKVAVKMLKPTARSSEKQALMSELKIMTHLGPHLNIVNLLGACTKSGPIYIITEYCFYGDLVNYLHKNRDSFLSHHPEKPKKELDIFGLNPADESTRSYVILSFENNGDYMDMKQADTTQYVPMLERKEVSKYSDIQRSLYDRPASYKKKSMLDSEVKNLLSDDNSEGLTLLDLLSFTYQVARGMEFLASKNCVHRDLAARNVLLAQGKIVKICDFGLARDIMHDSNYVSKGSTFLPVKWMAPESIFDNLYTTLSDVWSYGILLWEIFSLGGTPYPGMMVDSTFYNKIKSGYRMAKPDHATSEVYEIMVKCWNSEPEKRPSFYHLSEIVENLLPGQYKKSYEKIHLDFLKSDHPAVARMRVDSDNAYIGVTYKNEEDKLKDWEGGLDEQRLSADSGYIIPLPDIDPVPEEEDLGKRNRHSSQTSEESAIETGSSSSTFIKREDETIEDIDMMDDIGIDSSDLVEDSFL

| Compound | IC50 (Pharmacological Test Example 1) | inhibition at 0.1 µM (figure in parentheses in >100( )) | IC50 | inhibition at 0.1 µM [1] |
| --- | --- | --- | --- | --- |
| COc1cc2ncnc(Oc3ccc(NC(=O)OCC4CC4)c(Cl)c3)c2cc1OC [Example 384, Cyclopropylmethyl N-{2-chloro-4-[(6,7-dimethoxy-4-quinazolinyl)oxy]phenyl}carbamate] | > 100 nM | 37% |  |  |
| COc1cc2ncnc(Oc3ccc(NC(=O)OCC4CCC4)c(Cl)c3)c2cc1OC [Example 389, Cyclobutylmethyl N-{2-chloro-4-[(6,7-dimethoxy-4-quinazolinyl)oxy]phenyl}carbamate] | 51 nM |  |  |  |
| COc1cc2nccc(Oc3ccc(NC(=O)OC(C#N)c4ccccc4)cc3)c2cc1OC (stereo not shown) [Example 453, Cyano(phenyl)methyl N-{4-[(6,7-dimethoxy-4-quinolyl)oxy]phenyl}carbamate] |  |  | > 100 nM | 1% |
| COc1cc2nccc(Oc3cc(C)c(NC(=O)OC(C#N)c4ccccc4)cc3C)c2cc1OC (stereo not shown) [Example 454, Cyano(phenyl)methyl N-{4-[(6,7-dimethoxy-4-quinolyl)oxy]-2,5-dimethylphenyl}carbamate] |  |  | > 100 nM | 23% |
| COc1cc2ncnc(Oc3ccc(NC(=O)Oc4ccccc4C#N)cc3)c2cc1OC [Example 456, 2-Cyanophenyl N-{4-[(6,7-dimethoxy-4-quinazolinyl)oxy]phenyl}carbamate] |  |  | > 100 nM | 21% |
| COc1cc2nccc(Oc3ccc(NC(=O)Oc4cccc(C#N)c4)cc3)c2cc1OC [Example 457, 3-Cyanophenyl N-{4-[(6,7-dimethoxy-4-quinolyl)oxy]phenyl}carbamate] |  |  | > 100 nM | 29% |
| COc1cc2nccc(Oc3cc(C)c(NC(=O)Oc4cccc(C#N)c4)cc3C)c2cc1OC [Example 458, 3-Cyanophenyl N-{4-[(6,7-dimethoxy-4-quinolyl)oxy]-2,5-dimethylphenyl}carbamate] |  |  | > 100 nM | 18% |
| COc1cc2nccc(Oc3cc(C)c(NC(=O)Oc4ccc(C#N)cc4)cc3C)c2cc1OC [Example 460, 4-Cyanophenyl N-{4-[(6,7-dimethoxy-4-quinolyl)oxy]-2,5-dimethylphenyl}carbamate] |  |  | > 100 nM | 15% |
| COc1cc2nccc(Oc3ccc(NC(=O)Oc4ccc(C#N)cc4)c(C)c3C)c2cc1OC [Example 461, 4-Cyanophenyl N-{4-[(6,7-dimethoxy-4-quinolyl)oxy]-2,3-dimethylphenyl}carbamate] |  |  | 60 nM |  |
| COc1cc2ncnc(Oc3ccc(NC(=O)OC4CCCN(C)C4)cc3)c2cc1OC (stereo not shown) [Example 465, 1-Methyl-3-piperidyl N-{4-[(6,7-dimethoxy-4-quinazolinyl)oxy]phenyl}carbamate] |  |  | 56 nM |  |
| CCN(C(=O)OCc1ccccc1OC)c1ccc(Oc2ncnc3cc(OC)c(OC)cc23)cc1Cl [Example 485, 2-Methoxybenzyl N-{2-chloro-4-[(6,7-dimethoxy-4-quinazolinyl)oxy]phenyl}-N-ethylcarbamate] |  |  | > 100 nM | 35% |
| CCN(C(=O)OCc1ccccc1Cl)c1ccc(Oc2ncnc3cc(OC)c(OC)cc23)cc1Cl [Example 487, 2-Chlorobenzyl N-{2-chloro-4-[(6,7-dimethoxy-4-quinazolinyl)oxy]phenyl}-N-ethylcarbamate] |  |  | > 100 nM | 31% |
| CCCC(CCC)OC(=O)N(CC)c1ccc(Oc2ncnc3cc(OC)c(OC)cc23)cc1Cl [Example 488, 1-Propylbutyl N-{2-chloro-4-[(6,7-dimethoxy-4-quinazolinyl)oxy]phenyl}-N-ethylcarbamate] |  |  | 98 nM |  |
| CCCC(CCC)OC(=O)N(C)c1ccc(Oc2ncnc3cc(OC)c(OC)cc23)cc1 [Example 493, 1-Propylbutyl N-{4-[(6,7-dimethoxy-4-quinazolinyl)oxy]phenyl}-N-methylcarbamate] |  |  | 39 nM |  |
| C#CCC(CC)OC(=O)N(C)c1ccc(Oc2ncnc3cc(OC)c(OC)cc23)cc1 (stereo not shown) [Example 495, 1-Ethyl-3-butynyl N-{4-[(6,7-dimethoxy-4-quinazolinyl)oxy]phenyl}-N-methylcarbamate] |  |  | 65 nM |  |

The remaining lines, values ahead:

| IC50 (Pharmacological Test Example 1) | inhibition at 0.1 µM (figure in parentheses in >100( )) | IC50 | inhibition at 0.1 µM [1] | Compound |
| --- | --- | --- | --- | --- |
| 93 nM |  |  |  | COc1cc2nccc(Oc3cc(C)c(NC(=O)OC(c4ccccc4)C(C)C)cc3C)c2cc1OC (stereo not shown) [Example 197, 2-Methyl-1-phenylpropyl N-{4-[(6,7-dimethoxy-4-quinolyl)oxy]-2,5-dimethylphenyl}carbamate] |
| 21 nM |  |  |  | COc1cc2ncnc(Oc3ccc(NC(=O)OC(c4ccccc4)C(C)C)cc3)c2cc1OC (stereo not shown) [Example 198, 2-Methyl-1-phenylpropyl N-{4-[(6,7-dimethoxy-4-quinazolinyl)oxy]phenyl}carbamate] |
| > 100 nM |  |  |  | COc1cc2nccc(Oc3cc(C)c(NC(=O)OC(C)c4cccc(N(C)C)c4)cc3C)c2cc1OC (stereo not shown) [Example 201, 1-[3-(Dimethylamino)phenyl]ethyl N-{4-[(6,7-dimethoxy-4-quinolyl)oxy]-2,5-dimethylphenyl}-carbamate] |
| 78 nM |  |  |  | COc1cc2nccc(Oc3cc(C)c(NC(=O)OCCOc4ccccc4F)cc3C)c2cc1OC [Example 205, 2-(2-Fluorophenoxy)ethyl N-{4-[(6,7-dimethoxy-4-quinolyl)oxy]-2,5-dimethylphenyl}carbamate] |
| > 100 nM |  |  |  | COc1cc2nccc(Oc3cc(C)c(NC(=O)OCCOc4cccc(F)c4)cc3C)c2cc1OC [Example 209, 2-(3-Fluorophenoxy)ethyl N-{4-[(6,7-dimethoxy-4-quinolyl)oxy]-2,5-dimethylphenyl}carbamate] |
| < 10 nM |  |  |  | COc1cc2nccc(Oc3ccc(NC(=O)OCCC4CCCCC4)cc3)c2cc1OC [Example 353, 2-Cyclohexylethyl N-{4-[(6,7-dimethoxy-4-quinolyl)oxy]phenyl}carbamate] |
| 66 nM |  |  |  | COc1cc2nccc(Oc3cc(C)c(NC(=O)OCC4CC4)cc3C)c2cc1OC [Example 381, Cyclopropylmethyl N-{4-[(6,7-dimethoxy-4-quinolyl)oxy]-2,5-dimethylphenyl}carbamate] |
|  |  | > 100 nM | 27% | COc1cc2nccc(Oc3cc(C)c(NC(=O)OCCCN4CCCCC4)cc3C)c2cc1OC [Example 414, 3-Piperidinopropyl N-{4-[(6,7-dimethoxy-4-quinolyl)oxy]-2,5-dimethylphenyl}carbamate] |
|  |  | > 100 nM | 49% | COc1cc2nccc(Oc3ccc(NC(=O)ON4C(=O)c5ccccc5C4=O)cc3)c2cc1OC [Example 416, 1,3-Dioxo-2,3-dihydro-1H-2-isoindolyl N-{4-[(6,7-dimethoxy-4-quinolyl)oxy]phenyl}carbamate] |
|  |  | > 100 nM | 42% | COc1cc2nccc(Oc3cc(C)c(NC(=O)OCN4C(=O)c5ccccc5C4=O)cc3C)c2cc1OC [Example 417, (1,3-Dioxo-2,3-dihydro-1H-2-isoindolyl)methyl N-{4-[(6,7-dimethoxy-4-quinolyl)oxy]-2,5-dimethylphenyl}carbamate] |
|  |  | > 100 nM | 47% | COc1cc2nccc(Oc3cc(C)c(NC(=O)OCCN4C(=O)c5ccccc5C4=O)cc3C)c2cc1OC [Example 419, 2-(1,3-Dioxo-2,3-dihydro-1H-2-isoindolyl)ethyl N-{4-[(6,7-dimethoxy-4-quinolyl)oxy]-2,5-dimethylphenyl}carbamate] |
|  |  | 70 nM |  | CCCC(CCN(CC)CC)OC(=O)Nc1ccc(Oc2ccnc3cc(OC)c(OC)cc23)cc1 (stereo not shown) [Example 441, 1-[2-(Diethylamino)ethyl]butyl N-{4-[(6,7-dimethoxy-4-quinolyl)oxy]phenyl}carbamate] |
|  |  | 77 nM |  | COc1cc2nccc(Oc3ccc(NC(=O)OC(C#N)c4ccccc4)c(C)c3C)c2cc1OC (stereo not shown) [Example 455, Cyano(phenyl)methyl N-{4-[(6,7-dimethoxy-4-quinolyl)oxy]-2,3-dimethylphenyl}carbamate] |
|  |  | > 100 nM | 16% | COc1cc2nccc(Oc3ccc(NC(=O)OC4CCN(C)CC4)cc3)c2cc1OC [Example 466, 1-Methyl-4-piperidyl N-{4-[(6,7-dimethoxy-4-quinolyl)oxy]phenyl}carbamate] |
|  |  | > 100 nM | 8% | COc1cc2nccc(Oc3cc(C)c(NC(=O)OC4CCN(C)CC4)cc3C)c2cc1OC [Example 467, 1-Methyl-4-piperidyl N-{4-[(6,7-dimethoxy-4-quinolyl)oxy]-2,5-dimethylphenyl}carbamate] |
|  |  | > 100 nM | 20% | COc1cc2nccc(Oc3ccc(NC(=O)OC4CCN(C)CC4)c(C)c3C)c2cc1OC [Example 468, 1-Methyl-4-piperidyl N-{4-[(6,7-dimethoxy-4-quinolyl)oxy]-2,3-dimethylphenyl}carbamate] |
|  |  | > 100 nM | 36% | CCN(C(=O)OCc1ccccc1C)c1ccc(Oc2ncnc3cc(OC)c(OC)cc23)cc1Cl [Example 486, 2-Methylbenzyl N-{2-chloro-4-[(6,7-dimethoxy-4-quinazolinyl)oxy]phenyl}-N-ethylcarbamate] |
